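Five concentrations, 48 hours, 96-well plates. Abbreviation: GI50, concentration required for 50% inhibition of growth.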 Activity calls are given as the source filed them. Cut-off read from the data, not from the text of the source: active = GI50 up to about 1.1 µM and inactive = higher.

What all share (test): NCI tumour cell line growth inhibition, 48 h
Assay [1] relates to UACC-62.
Assay [2] concerns 786-0.
For assay [3], the system named is CAKI-1.
Assay [4] relates to NCI-H522.
Assay [5] relates to U-251.
For assay [6], the system named is SR.
Assay [7] deals with ACHN.
The subject of assay [8] is SNB-75.
In assay [9] the test system is OVCAR-8.
In assay [10] the test system is SK-MEL-2.
Assay [11] concerns MOLT-4.
Assay [12] concerns RPMI-8226.
Assay [13] concerns HT-29.
Assay [14] has as its system OVCAR-5.
The subject of assay [15] is SN12C.
The test system of assay [16] is NCI-H226.
Assay [17] relates to T47D.
In assay [18] the test system is MDA-N.
The test system of assay [19] is PC-3.

`CN(C)NC(=O)/C(=C/c1ccc(Cl)cc1)NC(=O)c1ccccc1`: the GI50 was > 100 µM (inactive) in assay [1]; > 100 µM (inactive) in [2]; > 100 µM (inactive) in assay [3]; 40.7 µM (inactive) in assay [4]; > 100 µM (inactive) in [5]; 39.9 µM (inactive) in assay [6]. Besides, the GI50 was > 100 µM (inactive) in [7]; 78 µM (inactive) in assay [8]; > 100 µM (inactive) in assay [9]; > 100 µM (inactive) in assay [10]; > 100 µM (inactive) in assay [11]; > 100 µM (inactive) in assay [12]. For the same molecule, the GI50 in [13], in [14], in assay [15] and in assay [16] was > 100 µM (inactive) in each case.

For the molecule `COC(=O)C(C(=O)C(=O)Nc1ccc(C)cc1C)c1nc2ccc([N+](=O)[O-])cc2nc1O` (centres undefined), the GI50 in assay [1] is > 100 µM (inactive); in [2] it was > 100 µM (inactive); in assay [3], > 100 µM (inactive); in assay [4], 60.3 µM (inactive); in assay [5], > 100 µM (inactive); in assay [6], > 100 µM (inactive). Further, the GI50 is > 100 µM (inactive) in [7]; > 100 µM (inactive) in assay [8]; > 100 µM (inactive) in [9]; > 100 µM (inactive) in assay [10]; > 100 µM (inactive) in assay [11]; 33.8 µM (inactive) in [12]. Besides, the GI50 in assay [13], in assay [14], in [15] and in [16] was > 100 µM (inactive) each time.

Take `Cc1nc(N)nc(N)c1CCCCc1ccc(N)cc1`: the GI50 in [1] was 1.86 µM (inactive); in [2], 0.728 µM (active); in assay [3], 9.66 µM (inactive); in assay [4], 4.26 µM (inactive); in [5], 3.03 µM (inactive); in [6] it was 1.28 µM (inactive). The GI50 in [7] was 4.12 µM (inactive); in [8] it was 11.9 µM (inactive); in assay [9] it was 3.18 µM (inactive); in assay [10] it was 9.06 µM (inactive); in [11], 1.58 µM (inactive); in assay [12], 5.81 µM (inactive). Also, the GI50 in assay [13] is 0.729 µM (active); in [14], 4.46 µM (inactive); in assay [15], 4.3 µM (inactive); in assay [16], 25.8 µM (inactive).

As for `Cc1cccc(N2C(=O)/C(=C/c3ccc(N(CCC#N)CCC#N)cc3C)N=C2c2cc([N+](=O)[O-])ccc2Cl)c1`, the GI50 was > 100 µM (inactive) in [1]; > 100 µM (inactive) in [2]; 8.18 µM (inactive) in assay [3]; > 100 µM (inactive) in [4]; > 100 µM (inactive) in [5]; > 100 µM (inactive) in assay [6]. In addition, the GI50 in assay [7] is > 100 µM (inactive); in assay [8], > 100 µM (inactive); in assay [9], > 100 µM (inactive); in [10], > 100 µM (inactive); in [11] it was 46.5 µM (inactive); in assay [12], > 100 µM (inactive). Further, the GI50 was 45.5 µM (inactive) in assay [13], > 100 µM (inactive) in [14], > 100 µM (inactive) in assay [15] and > 100 µM (inactive) in [16].

`C=CC1(c2ccc3ccccc3c2)OCC(CC)(CC)CO1`: the GI50 in assay [1] was 24.8 µM (inactive); in assay [2], 20.2 µM (inactive); in [4], 24.5 µM (inactive); in assay [5], 21.5 µM (inactive); in assay [7], 20.5 µM (inactive); in assay [8], 47.6 µM (inactive). Also, the GI50 in assay [17] was 22.5 µM (inactive); in assay [9], 48.3 µM (inactive); in assay [10], 17.7 µM (inactive); in assay [11], 18.2 µM (inactive); in assay [12], 57.7 µM (inactive); in assay [13], 20.3 µM (inactive). The GI50 is 29.3 µM (inactive) in assay [18]; 18.8 µM (inactive) in [14]; 21.7 µM (inactive) in assay [15]; 16.4 µM (inactive) in assay [16]; 26.9 µM (inactive) in [19].

As for `COC(=O)CC1(O)C(/C=C/c2ccccc2)C(C(=O)OC)C(=O)C(C(=O)OC)C1C(=O)OC` (centres undefined), the GI50 is 81.1 µM (inactive) in assay [1]; > 100 µM (inactive) in assay [2]; > 100 µM (inactive) in [3]; 49.5 µM (inactive) in [4]; 79.3 µM (inactive) in assay [5]; > 100 µM (inactive) in assay [6]. Moreover, the GI50 in assay [7], in assay [9], in [10], in assay [11], in assay [12] and in [13] was > 100 µM (inactive) each time. Moreover, the GI50 was 44 µM (inactive) in [18]; > 100 µM (inactive) in assay [14]; > 100 µM (inactive) in [15]; > 100 µM (inactive) in assay [16]; 78.7 µM (inactive) in [19].

Turning to `CCCOc1ccc(/C=C/c2cc(OC)c(OC)c(OC)c2)cc1`, the GI50 in [1] is 0.215 µM (active); in assay [2], 0.481 µM (active); in [3], 0.209 µM (active); in assay [4], 0.175 µM (active); in assay [5], 0.384 µM (active); in assay [6], 0.548 µM (active). Also, the GI50 in assay [7] was 0.697 µM (active); in assay [8], 0.266 µM (active); in assay [9] it was 0.525 µM (active); in assay [10], 0.822 µM (active); in assay [11] it was 0.443 µM (active); in assay [12] it was 0.456 µM (active). In addition, the GI50 in assay [13] is 0.272 µM (active); in assay [14] it was 28 µM (inactive); in assay [15], 0.635 µM (active); in [16], 0.373 µM (active).

With `CC1(C)O/C(=C\c2ccccc2)C(=O)/C(=C/c2ccccc2)O1`, the GI50 in assay [1] was 25.8 µM (inactive); in assay [2] it was 37.8 µM (inactive); in assay [3], 55.3 µM (inactive); in assay [4], 3.4 µM (inactive); in assay [5], 28.4 µM (inactive); in assay [6], 20.5 µM (inactive). Besides, the GI50 in assay [7] is 33.8 µM (inactive); in [8], 31.6 µM (inactive); in [9] it was 45.2 µM (inactive); in assay [10], 18.4 µM (inactive); in [11], 14.7 µM (inactive); in assay [12] it was 16.3 µM (inactive). Moreover, the GI50 in assay [13] was 29.4 µM (inactive); in assay [14] it was 14.7 µM (inactive); in assay [15], 47.6 µM (inactive); in [16] it was 17.7 µM (inactive).

With `COc1cc(C2(C)SCCCS2)cc(OC)c1OC`, the GI50 in assay [1], in assay [2], in assay [3], in assay [4], in assay [5] and in assay [6] was > 100 µM (inactive) each time. In addition, the GI50 in [7], in assay [8], in assay [9], in assay [10], in assay [11] and in assay [12] was > 100 µM (inactive) throughout. In addition, the GI50 in assay [13], in [14], in [15] and in assay [16] was > 100 µM (inactive) in each case.

As for `O=C(c1ccco1)N(C(=S)N1CCN(c2ccccc2)CC1)c1ccccc1`, the GI50 in assay [1] was > 100 µM (inactive); in [2], > 100 µM (inactive); in assay [3], > 100 µM (inactive); in assay [4] it was > 100 µM (inactive); in [5], > 100 µM (inactive); in assay [6], 72.4 µM (inactive). Further, the GI50 in assay [7], in assay [8], in assay [9], in assay [10], in assay [11] and in assay [12] was > 100 µM (inactive) throughout. The GI50 in assay [13] is > 100 µM (inactive); in assay [14], > 100 µM (inactive); in assay [15], > 100 µM (inactive); in [16] it was 25.6 µM (inactive).

`Cc1ccc(C(=O)C(C)N)cc1` (centres undefined): the GI50 in assay [1], in [2], in assay [3], in assay [4], in [5] and in assay [6] was > 100 µM (inactive) in each case. Also, the GI50 in assay [7], in assay [8], in [9], in assay [10], in assay [11] and in assay [12] was > 100 µM (inactive) throughout. Besides, the GI50 in assay [13], in assay [14], in assay [15] and in [16] was > 100 µM (inactive) each time.

Consider `Oc1ccc(-c2n[nH]c(S)n2)cc1`, for which the GI50 in [1], in assay [2], in [3], in [4], in assay [5] and in assay [6] was > 100 µM (inactive) in each case. For the same molecule, the GI50 in [7] was > 100 µM (inactive); in [8], 87.5 µM (inactive); in assay [9] it was > 100 µM (inactive); in assay [10] it was > 100 µM (inactive); in assay [11], > 100 µM (inactive); in assay [12] it was > 100 µM (inactive). The GI50 in assay [13], in assay [14], in assay [15] and in assay [16] was > 100 µM (inactive) throughout.

These data come from ChEMBL document CHEMBL1201862, “PubChem BioAssay data set” (2004).
